Legend:
Format in all cases: in vivo
[1] = system: Echinochloa crus-galli var. formosensis; test: Test Example 1: herbicidal effect test by soil application in paddy rice; conditions: 120 g active ingredient per 10 ares, applied immediately after sowing, flooded pots, 14 days after application; for pest or weed control at 1200 g/ha: Echinochloa crus-galli, soil, 336 h, read-out: weed inhibition rate
Method in brief: (§1)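 Pre-emergence paddy treatment: diluted emulsifiable concentrate applied by dropper at 120 g a.i./10 ares immediately after sowing. Seeds (30 per species, 0–1 cm deep) in fertilized, puddled paddy soil kept under ~3 cm flood in a glass greenhouse.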

[2] = system: Scirpus juncoides; test: as above; conditions: 120 g active ingredient per 10 ares, applied immediately after sowing, flooded pots, 14 days after application; for pest or weed control at 1200 g/ha: Schoenoplectiella juncoides, soil, 336 h, read-out: weed inhibition rate
Method in brief: as §1

[3] = system: Monochoria vaginalis; test: as above; conditions: 120 g active ingredient per 10 ares, applied immediately after sowing, flooded pots, 14 days after application; for pest or weed control at 1200 g/ha: Pontederia vaginalis, soil, 336 h, read-out: weed inhibition rate
Method in brief: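 Inhibition rate (%) read 14 days after treatment, duplicate pots. Water-diluted emulsifiable concentrate was applied by dropper at 120 g active ingredient/10 ares right after sowing. Seeds (30 per species, 0–1 cm deep) went into puddled paddy soil kept flooded at about 3 cm in a greenhouse.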

[4] = system: Echinochloa crus-galli; test: Test Example 4: herbicidal effect test by stem and leaf treatment in upland field; conditions: Echinochloa crus-galli; 120 g per 10 ares; sprayed seven days after sowing, upland soil; 14 days after application; read-out: weed inhibition rate
[5] = system: Echinochloa crus-galli var. formosensis; test: Test Example 5: herbicidal effect test by soil application in paddy rice (low dose); conditions: Echinochloa crus-galli, soil, 336 h; 7.5 g per 10 ares; applied immediately after sowing, flooded pots; 14 days after application; read-out: weed inhibition rate
Method in brief: (§2)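 Paddy-soil pots, weeds sown 0–1 cm deep and flooded to about 3 cm in a greenhouse. Emulsifiable concentrate diluted in water and dropped in right after sowing at 7.5 g active ingredient per 10 ares. Duplicates; effect scored 14 days after application.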

[6] = system: Monochoria vaginalis; test: as above; conditions: Pontederia vaginalis, 336 h, 7.5 g per 10 ares, applied immediately after sowing, flooded pots, 14 days after application, read-out: weed inhibition rate
Method in brief: as §2

[7] = system: Scirpus juncoides; test: as above; conditions: Schoenoplectiella juncoides, 336 h, 7.5 g per 10 ares, applied immediately after sowing, flooded pots, 14 days after application, read-out: weed inhibition rate
Method in brief: as §2

[8] = system: Monochoria vaginalis; test: Test Example 6: herbicidal effect test by application during growth period of paddy rice (low dose); conditions: Pontederia vaginalis; 7.5 g per 10 ares; applied seven days after sowing, flooded pots; 14 days after application; read-out: weed inhibition rate
Method in brief: (§3)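 Puddled, fertilised paddy soil was sown with 30 seeds per species and flooded to about 3 cm. After 7 days in a glass greenhouse, the diluted emulsifiable concentrate went into the water by dropper at 7.5 g/10 a. Effect scored at 14 days.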

[9] = system: Scirpus juncoides; test: as above; conditions: Schoenoplectiella juncoides; 7.5 g per 10 ares; applied seven days after sowing, flooded pots; 14 days after application; read-out: weed inhibition rate
Method in brief: as §3

[10] = system: Amaranthus viridis; test: Test Example 3: herbicidal effect test by soil application in upland field; conditions: Amaranthus viridis, 120 g per 10 ares, sprayed one day after sowing, 14 days after application, read-out: weed inhibition rate
Method in brief: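 Weed inhibition (%) was assessed 14 days after treatment, in duplicate per concentration group. Seeds had been mixed into the upper 1 cm of upland alluvial loam, and the soil surface was sprayed one day later with the diluted emulsifiable concentrate at 120 g active ingredient per 10 ares.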

Cc1cccc(F)c1CO[C@@H]1C[C@]2(C(C)C)O[C@@]1(C)CC2=O [2-353, (1R,4S,5R)-5-((2-fluoro-6-methylbenzyl)oxy)-1-isopropyl-4-methyl-7-oxabicyclo[2.2.1]heptan-2-one]
≥ 80%: pest or weed control at 1200 g/ha [1] | pest or weed control at 1200 g/ha [2] | pest or weed control at 1200 g/ha [3] | inhibition at 1200 g/ha [4] | inhibition at 75 g/ha [5] | inhibition at 75 g/ha [6] | inhibition at 75 g/ha [7] | inhibition at 75 g/ha [8] | inhibition at 75 g/ha [9]

CCOC(C)O[C@H]1C[C@]2(C)O[C@@]1(C(C)C)C[C@H]2OCc1c(F)cccc1F (stereo partly drawn) [1-223, (1S,2R,4R,5S)-2-((2,6-difluorobenzyl)oxy)-5-(1-ethoxyethoxy)-4-isopropyl-1-methyl-7-oxabicyclo[2.2.1]heptane]
≥ 80%: pest or weed control at 1200 g/ha [1] | pest or weed control at 1200 g/ha [2] | pest or weed control at 1200 g/ha [3] | inhibition at 1200 g/ha [10] | inhibition at 1200 g/ha [4] | inhibition at 75 g/ha [5]

CC(C)[C@]12C=C[C@](C)(O1)[C@H](OCc1c(F)cccc1F)C2 [3-7, (1R,4S,5R)-5-[(2,6-difluorophenyl)methoxy]-4-methyl-1-isopropyl-7-oxabicyclo[2.2.1]hept-2-ene]
≥ 80%: pest or weed control at 1200 g/ha [1] | pest or weed control at 1200 g/ha [2] | pest or weed control at 1200 g/ha [3] | inhibition at 1200 g/ha [4] | inhibition at 75 g/ha [5] | inhibition at 75 g/ha [6] | inhibition at 75 g/ha [7] | inhibition at 75 g/ha [9]

CC(C)[C@]12C[C@@H](OCc3cccc(F)c3)[C@](C)(CC1=O)O2 [2-351, (1R,4S,5R)-5-((3-fluorobenzyl)oxy)-1-isopropyl-4-methyl-7-oxabicyclo[2.2.1]heptan-2-one]
≥ 80%: pest or weed control at 1200 g/ha [1] | pest or weed control at 1200 g/ha [2] | pest or weed control at 1200 g/ha [3] | inhibition at 1200 g/ha [10] | inhibition at 1200 g/ha [4] | inhibition at 75 g/ha [5] | inhibition at 75 g/ha [6] | inhibition at 75 g/ha [7]

CC(C)[C@]12C[C@@H](OCc3ccccc3Br)[C@](C)(C[C@@H]1Br)O2 [1-694, (1S,2R,4R,5S)-5-bromo-2-[(2-bromophenyl)methoxy]-1-methyl-4-isopropyl-7-oxabicyclo[2.2.1]heptane]
≥ 80%: pest or weed control at 1200 g/ha [1] | pest or weed control at 1200 g/ha [3] | inhibition at 1200 g/ha [10] | inhibition at 1200 g/ha [4] | inhibition at 75 g/ha [5] | inhibition at 75 g/ha [6] | inhibition at 75 g/ha [8]

Cc1ccc(CO[C@@H]2C[C@]3(C(C)C)O[C@@]2(C)C[C@@H]3Br)cc1 [1-681, (1S,2R,4R,5S)-5-bromo-1-methyl-2-[(4-methylphenyl)methoxy]-4-isopropyl-7-oxabicyclo[2.2.1]heptane]
≥ 80%: pest or weed control at 1200 g/ha [1] | pest or weed control at 1200 g/ha [2] | pest or weed control at 1200 g/ha [3] | inhibition at 1200 g/ha [4] | inhibition at 75 g/ha [5] | inhibition at 75 g/ha [8] | inhibition at 75 g/ha [9]

CC(C)=CCO[C@@H]1C[C@]2(C(C)C)O[C@@]1(C)C[C@@H]2Br [1-672, (1S,2R,4R,5S)-5-bromo-1-methyl-2-(3-methylbut-2-enoxy)-4-isopropyl-7-oxabicyclo[2.2.1]heptane]
≥ 80%: pest or weed control at 1200 g/ha [1] | pest or weed control at 1200 g/ha [3] | inhibition at 1200 g/ha [10] | inhibition at 1200 g/ha [4] | inhibition at 75 g/ha [5] | inhibition at 75 g/ha [6] | inhibition at 75 g/ha [7] | inhibition at 75 g/ha [8]

C=CCO[C@H]1C[C@]2(C)O[C@@]1(C(C)C)C[C@H]2OCc1ccccc1F [1-1602, (1S,2R,4R,5S)-2-[(2-fluorophenyl)methoxy]-1-methyl-4-isopropyl-5-prop-2-enoxy-7-oxabicyclo[2.2.1]heptane]
≥ 80%: pest or weed control at 1200 g/ha [1] | pest or weed control at 1200 g/ha [2] | inhibition at 1200 g/ha [4] | inhibition at 75 g/ha [5] | inhibition at 75 g/ha [7] | inhibition at 75 g/ha [8] | inhibition at 75 g/ha [9]

CO[C@H]1C[C@]2(C)O[C@@]1(C(C)C)C[C@H]2OCc1ccccc1C [1-151, (1 S,2R,4R,5S)-4-isopropyl-5-methoxy-l-methyl-2-((2-methylbenzyl)oxy)-7-oxabicyclo[2.2.1]heptane]
≥ 80%: weed inhibition rate [1] | weed inhibition rate [2] | inhibition at 1200 g/ha [4] | inhibition at 75 g/ha [5] | inhibition at 75 g/ha [7] | inhibition at 75 g/ha [9]

CC(C)[C@]12C[C@@H](OCc3ccccc3F)[C@](C)(C[C@@H]1I)O2 [1-753, (1S,2R,4R,SS)-2-[(2-fluorophenyl)methoxy]-5-iodo-1-methyl-4-isopropyl-7-oxabicyclo[2.2.1]heptane]
≥ 80%: weed inhibition rate [1] | weed inhibition rate [2] | weed inhibition rate [3] | inhibition at 1200 g/ha [10] | inhibition at 1200 g/ha [4] | inhibition at 75 g/ha [5] | inhibition at 75 g/ha [6] | inhibition at 75 g/ha [7] | inhibition at 75 g/ha [8]

CC(C)[C@]12C[C@@H](OCc3ccccc3F)[C@](C)(C/C1=N\O)O2 [2-197, (1R,4S,5R,E)-5-((2-fluorobenzyl)oxy)-1-isopropyl-4-methyl-7-oxabicyclo[2.2.1]heptan-2-one oxime]
≥ 80%: pest or weed control at 1200 g/ha [1] | pest or weed control at 1200 g/ha [2] | pest or weed control at 1200 g/ha [3] | inhibition at 1200 g/ha [10] | inhibition at 1200 g/ha [4] | inhibition at 75 g/ha [5] | inhibition at 75 g/ha [6] | inhibition at 75 g/ha [8]

CCOC(C)O[C@H]1C[C@]2(C)O[C@@]1(C(C)C)C[C@H]2OCc1ccccc1C (stereo partly drawn) [1-208, (1R,2S,4S,5R)-2-(1-ethoxyethoxy)-1-isopropyl-4-methyl-5-((2-methylbenzyl)oxy)-7-oxabicyclo[2.2.1]heptane]
≥ 80%: pest or weed control at 1200 g/ha [1] | pest or weed control at 1200 g/ha [2] | pest or weed control at 1200 g/ha [3] | inhibition at 1200 g/ha [10] | inhibition at 1200 g/ha [4] | inhibition at 75 g/ha [5]

CC(C)[C@]12C[C@@H](OCc3ccccc3C#N)[C@](C)(C[C@@H]1Br)O2 [1-703, 2-[[(1S,2R,4R,5S)-5-bromo-1-methyl-4-isopropyl-7-oxabicyclo[2.2.1]heptan-2-yl]oxymethyl]benzonitrile]
≥ 80%: pest or weed control at 1200 g/ha [1] | pest or weed control at 1200 g/ha [2] | pest or weed control at 1200 g/ha [3] | inhibition at 1200 g/ha [10] | inhibition at 1200 g/ha [4] | inhibition at 75 g/ha [5]

From patent EP4707280A1, “1,4-CINEOLE DERIVATIVE AND INTERMEDIATE THEREOF, HERBICIDE CONTAINING SAID DERIVATIVE AS ACTIVE INGREDIENT, METHOD FOR USING HERBICIDE, AND METHOD FOR PREPARING AGROCHEMICAL COMPOSITION” (HOKKO CHEMICAL INDUSTRY CO., LTD., priority 2023, dated 2024)
